Laboratory results: US10870647B2, “Imidazopyridine derivative, method for preparing same, and pharmaceutical composition containing same as active ingredient for preventing or treating cancer” (DAEGU-GYEONGBUK MEDICAL INNOVATION FOUNDATION, priority 2016, dated 2020)

Assays:
Assay in all cases: Kinase selectivity, scanMAX Kinase assay panel (DiscoverX), % control at 1 uM
Type in all cases: binding
[1] = molecular target: T1, scanMAX Kinase assay panel (Homo sapiens, UniProt P00519, Y253F); conditions: ABL1 (Y253F)-phosphorylated; 1 uM; read-out: Percent Control (%)
T1 construct: purchased DiscoverX
In short: (§1)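 Compounds were tested at 1 uM in DMSO against each enzyme in the panel. Percent control was calculated as (compound − positive control)/(negative control − positive control) × 100, and a compound was scored active on a kinase when this value fell below 35.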

[2] = molecular target: T2, scanMAX Kinase assay panel (Homo sapiens, UniProt P42684); conditions: ABL2; 1 uM; read-out: Percent Control (%)
T2 construct: purchased DiscoverX
In short: as §1

[3] = molecular target: T3, scanMAX Kinase assay panel (Homo sapiens, UniProt P57078); conditions: RIPK4; 1 uM; read-out: Percent Control (%)
T3 construct: purchased DiscoverX
T3 sequence (P57078 1-832): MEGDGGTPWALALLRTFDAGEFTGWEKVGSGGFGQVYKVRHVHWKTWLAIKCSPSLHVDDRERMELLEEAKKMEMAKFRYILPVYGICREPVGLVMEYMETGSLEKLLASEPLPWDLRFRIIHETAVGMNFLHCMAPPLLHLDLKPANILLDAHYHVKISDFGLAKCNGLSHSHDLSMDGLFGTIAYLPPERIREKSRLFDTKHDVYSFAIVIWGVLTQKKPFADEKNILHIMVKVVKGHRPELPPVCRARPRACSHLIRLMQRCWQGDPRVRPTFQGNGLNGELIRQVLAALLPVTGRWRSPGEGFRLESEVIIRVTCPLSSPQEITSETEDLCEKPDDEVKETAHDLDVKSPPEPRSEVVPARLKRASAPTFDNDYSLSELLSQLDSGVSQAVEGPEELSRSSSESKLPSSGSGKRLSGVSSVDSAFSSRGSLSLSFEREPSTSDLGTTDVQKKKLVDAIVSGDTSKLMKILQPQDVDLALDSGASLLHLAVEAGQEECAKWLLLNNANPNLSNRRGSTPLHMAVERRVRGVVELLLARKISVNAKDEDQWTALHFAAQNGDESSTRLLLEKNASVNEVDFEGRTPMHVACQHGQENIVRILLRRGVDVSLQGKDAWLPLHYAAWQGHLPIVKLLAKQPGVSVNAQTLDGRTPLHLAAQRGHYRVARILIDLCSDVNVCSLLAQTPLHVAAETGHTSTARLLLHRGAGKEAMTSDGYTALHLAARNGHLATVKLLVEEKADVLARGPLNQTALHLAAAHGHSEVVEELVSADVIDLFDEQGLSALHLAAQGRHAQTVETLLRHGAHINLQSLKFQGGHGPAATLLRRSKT
In short: as §1

[4] = molecular target: T4, scanMAX Kinase assay panel (Homo sapiens, UniProt Q12866); conditions: MERTK; 1 uM; read-out: Percent Control (%)
T4 construct: purchased DiscoverX
T4 sequence (Q12866 21-999): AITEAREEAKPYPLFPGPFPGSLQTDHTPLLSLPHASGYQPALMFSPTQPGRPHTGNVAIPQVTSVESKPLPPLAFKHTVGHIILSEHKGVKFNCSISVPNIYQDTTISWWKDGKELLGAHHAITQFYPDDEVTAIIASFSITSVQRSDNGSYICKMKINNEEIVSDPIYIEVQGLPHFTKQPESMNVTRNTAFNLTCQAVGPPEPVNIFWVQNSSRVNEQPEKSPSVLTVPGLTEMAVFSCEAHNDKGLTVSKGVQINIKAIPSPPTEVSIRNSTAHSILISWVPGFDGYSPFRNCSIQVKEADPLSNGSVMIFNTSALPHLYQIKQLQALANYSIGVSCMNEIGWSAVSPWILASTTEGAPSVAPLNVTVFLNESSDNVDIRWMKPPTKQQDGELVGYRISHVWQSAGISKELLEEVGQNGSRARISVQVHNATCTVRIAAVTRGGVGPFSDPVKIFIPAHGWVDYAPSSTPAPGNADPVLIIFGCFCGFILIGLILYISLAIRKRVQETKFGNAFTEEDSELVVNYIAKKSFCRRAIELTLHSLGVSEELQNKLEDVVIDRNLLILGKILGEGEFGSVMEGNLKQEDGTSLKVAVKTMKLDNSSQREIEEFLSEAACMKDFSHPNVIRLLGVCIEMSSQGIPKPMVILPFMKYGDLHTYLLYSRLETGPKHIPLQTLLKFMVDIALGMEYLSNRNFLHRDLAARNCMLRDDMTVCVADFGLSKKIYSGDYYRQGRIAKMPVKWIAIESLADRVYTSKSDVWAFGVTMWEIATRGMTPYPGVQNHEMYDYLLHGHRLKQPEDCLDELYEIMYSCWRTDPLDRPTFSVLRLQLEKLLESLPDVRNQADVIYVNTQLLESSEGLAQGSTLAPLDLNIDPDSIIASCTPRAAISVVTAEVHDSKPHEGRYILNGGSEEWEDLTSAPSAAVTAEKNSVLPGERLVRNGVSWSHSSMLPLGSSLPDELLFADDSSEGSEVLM
In short: as §1

[5] = molecular target: T5, scanMAX Kinase assay panel (Homo sapiens, UniProt Q14004); conditions: CDC2L5; 1 uM; read-out: Percent Control (%)
T5 construct: purchased DiscoverX
In short: as §1

[6] = molecular target: T6, scanMAX Kinase assay panel (Homo sapiens, UniProt Q86YV6); conditions: MYLK4; 1 uM; read-out: Percent Control (%)
T6 construct: purchased DiscoverX
T6 sequence (Q86YV6 1-388): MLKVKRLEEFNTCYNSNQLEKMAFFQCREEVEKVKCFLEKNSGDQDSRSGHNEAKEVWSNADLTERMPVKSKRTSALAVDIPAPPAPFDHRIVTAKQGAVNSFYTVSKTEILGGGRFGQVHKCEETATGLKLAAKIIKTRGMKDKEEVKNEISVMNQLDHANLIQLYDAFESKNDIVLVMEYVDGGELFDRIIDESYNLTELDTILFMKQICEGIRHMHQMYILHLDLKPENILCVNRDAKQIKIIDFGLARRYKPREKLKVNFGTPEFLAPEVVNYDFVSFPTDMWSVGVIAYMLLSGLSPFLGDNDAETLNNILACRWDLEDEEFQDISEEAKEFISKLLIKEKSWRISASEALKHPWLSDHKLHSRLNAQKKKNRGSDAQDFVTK
In short: as §1

[7] = molecular target: T7, scanMAX Kinase assay panel (Homo sapiens, UniProt Q9HAZ1); conditions: CLK4; 1 uM; read-out: Percent Control (%)
T7 construct: purchased DiscoverX
In short: as §1

T7 sequence (Q9HAZ1 whole entry): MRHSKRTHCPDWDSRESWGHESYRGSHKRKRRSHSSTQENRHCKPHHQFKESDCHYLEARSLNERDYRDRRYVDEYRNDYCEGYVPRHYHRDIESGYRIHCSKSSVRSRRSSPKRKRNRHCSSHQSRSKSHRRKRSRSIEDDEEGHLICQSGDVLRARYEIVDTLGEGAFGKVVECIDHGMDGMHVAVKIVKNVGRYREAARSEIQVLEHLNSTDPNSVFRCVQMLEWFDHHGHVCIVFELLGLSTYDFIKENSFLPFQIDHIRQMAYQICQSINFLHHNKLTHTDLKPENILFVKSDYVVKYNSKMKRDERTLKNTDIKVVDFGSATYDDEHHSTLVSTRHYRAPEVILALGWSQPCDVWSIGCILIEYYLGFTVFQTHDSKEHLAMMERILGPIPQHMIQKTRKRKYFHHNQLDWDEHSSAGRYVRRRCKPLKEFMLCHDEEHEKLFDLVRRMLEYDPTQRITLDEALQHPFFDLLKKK
T2 sequence (P42684 whole entry): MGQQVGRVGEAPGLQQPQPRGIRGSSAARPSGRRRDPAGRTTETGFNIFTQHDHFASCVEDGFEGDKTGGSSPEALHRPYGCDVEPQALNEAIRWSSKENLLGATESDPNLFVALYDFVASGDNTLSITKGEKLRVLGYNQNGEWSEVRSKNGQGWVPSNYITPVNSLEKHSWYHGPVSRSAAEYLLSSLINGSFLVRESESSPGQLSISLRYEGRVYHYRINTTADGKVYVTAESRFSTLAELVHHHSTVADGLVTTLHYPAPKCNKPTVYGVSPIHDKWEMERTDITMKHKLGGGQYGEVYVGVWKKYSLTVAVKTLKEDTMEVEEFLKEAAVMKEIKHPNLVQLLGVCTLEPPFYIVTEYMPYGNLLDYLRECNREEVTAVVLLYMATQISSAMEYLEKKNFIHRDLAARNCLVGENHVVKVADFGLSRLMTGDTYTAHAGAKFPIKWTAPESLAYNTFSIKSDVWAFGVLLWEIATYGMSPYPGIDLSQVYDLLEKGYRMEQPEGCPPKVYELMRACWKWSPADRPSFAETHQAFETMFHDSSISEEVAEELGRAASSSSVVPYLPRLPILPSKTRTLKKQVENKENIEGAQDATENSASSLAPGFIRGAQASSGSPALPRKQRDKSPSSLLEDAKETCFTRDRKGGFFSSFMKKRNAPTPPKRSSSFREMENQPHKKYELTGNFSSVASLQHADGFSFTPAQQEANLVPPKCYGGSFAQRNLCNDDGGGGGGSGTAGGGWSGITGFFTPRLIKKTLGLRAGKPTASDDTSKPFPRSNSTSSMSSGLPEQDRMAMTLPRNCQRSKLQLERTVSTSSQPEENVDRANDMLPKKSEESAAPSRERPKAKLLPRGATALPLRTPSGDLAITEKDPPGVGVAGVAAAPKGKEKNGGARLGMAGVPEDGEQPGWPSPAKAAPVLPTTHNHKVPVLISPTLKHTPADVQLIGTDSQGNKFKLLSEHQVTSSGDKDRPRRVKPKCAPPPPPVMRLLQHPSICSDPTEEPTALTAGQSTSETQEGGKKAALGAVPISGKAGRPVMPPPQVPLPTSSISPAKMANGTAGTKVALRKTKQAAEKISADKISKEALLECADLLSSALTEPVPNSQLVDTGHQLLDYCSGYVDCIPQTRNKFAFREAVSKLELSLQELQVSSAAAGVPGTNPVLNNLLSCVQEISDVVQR
T5 sequence (Q14004 whole entry): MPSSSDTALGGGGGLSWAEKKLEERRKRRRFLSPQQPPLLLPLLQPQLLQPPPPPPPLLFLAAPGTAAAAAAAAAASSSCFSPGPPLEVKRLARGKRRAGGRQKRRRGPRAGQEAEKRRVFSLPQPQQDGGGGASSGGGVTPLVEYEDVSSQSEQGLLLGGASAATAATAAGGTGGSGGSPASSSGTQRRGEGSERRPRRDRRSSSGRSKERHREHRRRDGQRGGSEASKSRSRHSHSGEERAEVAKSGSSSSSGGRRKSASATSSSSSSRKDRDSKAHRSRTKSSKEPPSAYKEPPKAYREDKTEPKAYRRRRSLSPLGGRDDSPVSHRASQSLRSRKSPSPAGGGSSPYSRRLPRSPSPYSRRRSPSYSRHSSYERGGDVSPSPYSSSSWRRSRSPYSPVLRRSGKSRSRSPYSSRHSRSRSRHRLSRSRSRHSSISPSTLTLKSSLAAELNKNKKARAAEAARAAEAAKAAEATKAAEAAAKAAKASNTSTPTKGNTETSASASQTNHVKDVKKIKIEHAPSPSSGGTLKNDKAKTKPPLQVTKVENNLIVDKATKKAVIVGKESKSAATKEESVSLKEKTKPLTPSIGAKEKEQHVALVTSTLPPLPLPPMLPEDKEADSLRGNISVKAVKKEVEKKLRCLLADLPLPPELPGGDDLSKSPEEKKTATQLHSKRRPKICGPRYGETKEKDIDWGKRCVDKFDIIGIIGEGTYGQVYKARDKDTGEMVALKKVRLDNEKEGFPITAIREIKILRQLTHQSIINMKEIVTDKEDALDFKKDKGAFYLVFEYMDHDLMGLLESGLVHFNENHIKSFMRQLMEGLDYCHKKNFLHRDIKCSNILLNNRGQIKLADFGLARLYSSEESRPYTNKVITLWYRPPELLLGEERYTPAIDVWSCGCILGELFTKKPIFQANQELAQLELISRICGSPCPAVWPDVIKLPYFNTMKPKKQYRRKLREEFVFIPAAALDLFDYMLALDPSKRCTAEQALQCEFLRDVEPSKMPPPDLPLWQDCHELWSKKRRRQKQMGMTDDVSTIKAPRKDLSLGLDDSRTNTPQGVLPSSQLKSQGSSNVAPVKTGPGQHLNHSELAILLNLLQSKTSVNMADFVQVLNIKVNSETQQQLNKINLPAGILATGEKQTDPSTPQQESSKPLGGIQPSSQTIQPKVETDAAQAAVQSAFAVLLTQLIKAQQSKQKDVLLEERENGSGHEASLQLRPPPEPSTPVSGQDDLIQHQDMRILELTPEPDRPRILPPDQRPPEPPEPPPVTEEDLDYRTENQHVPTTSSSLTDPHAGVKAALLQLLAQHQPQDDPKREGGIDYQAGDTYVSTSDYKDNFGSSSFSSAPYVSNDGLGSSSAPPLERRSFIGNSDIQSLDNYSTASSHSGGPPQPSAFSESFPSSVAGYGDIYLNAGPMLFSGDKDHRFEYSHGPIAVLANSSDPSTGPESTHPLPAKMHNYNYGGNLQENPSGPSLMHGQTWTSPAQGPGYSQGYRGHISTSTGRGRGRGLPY

Q: With `Cc1ccc(C(=O)Nc2ccc(CN3CCN(C)CC3)c(C(F)(F)F)c2)cc1C#Cc1cnc2c(Nc3cnn(C)c3)cccn12` [Example 1, 4-methyl-3-((8-((1-methyl-1H-pyrazol-4-yl)amino)imidazo[1,2-a]pyridin-3-yl)ethynyl)-N-(4-((4-methylpiperazin-1-yl)methyl)-3-(trifluoromethyl)phenyl)benzamide] as the compound, how does the remaining binding at 1 µM [1] read?
A: 0%

Q: And the remaining binding at 1 µM [2]?
A: 0%

Q: What about the remaining binding at 1 µM [3] of the same compound?
A: 13%

Q: What about the remaining binding at 1 µM [4] of the same compound?
A: 0%

Q: And the remaining binding at 1 µM [5]?
A: 5%

Q: And the remaining binding at 1 µM [6]?
A: 86%

Q: And the remaining binding at 1 µM [7]?
A: 10%

Q: Which remaining binding at 1 µM [1] does the source give for `Cc1cn(-c2cc(NC(=O)c3ccc(C)c(C#Cc4cnc5c(Nc6cnn(C)c6)cccn45)c3)cc(C(F)(F)F)c2)cn1` [Example 12, 4-methyl-N-(3-(4-methyl-1H-imidazol-1-yl)-5-(trifluoromethyl)phenyl)-3-((8-((1-methyl-1H-pyrazol-4-yl)amino)imidazo[1,2-a]pyridin-3-yl)ethynyl)benzamide] here?
A: 10%

Q: What about the remaining binding at 1 µM [2] of the same compound?
A: 1%

Q: What about the remaining binding at 1 µM [3] of the same compound?
A: 100%

Q: And the remaining binding at 1 µM [4]?
A: 3%

Q: What about the remaining binding at 1 µM [5] of the same compound?
A: 27%

Q: And the remaining binding at 1 µM [6]?
A: 92%

Q: What about the remaining binding at 1 µM [7] of the same compound?
A: 100%

Q: For `Cc1ccc(NC(=O)C2(C(=O)Nc3ccc(F)cc3)CC2)cc1C#Cc1cnc2c(Nc3cnn(C(C)C)c3)cccn12` [Example 78], which remaining binding at 1 µM [1] is on record?
A: 88%

Q: What about the remaining binding at 1 µM [2] of the same compound?
A: 14%

Q: And the remaining binding at 1 µM [3]?
A: 100%

Q: And the remaining binding at 1 µM [4]?
A: 100%

Q: And the remaining binding at 1 µM [5]?
A: 100%

Q: What about the remaining binding at 1 µM [6] of the same compound?
A: 100%

Q: And the remaining binding at 1 µM [7]?
A: 100%
